# According to US9944583B2, “Methods for ameliorating and preventing central nervous system inflammation” (THE REGENTS OF THE UNIVERSITY OF CALIFORNIA, priority 2007, dated 2018):
# “Also recorded” adds a separate entry of the source.
# Tests used:
# [1] = tested on: primary neuronal cultures; experiment: IL-6 exposure of primary neuronal cultures: oxidized DHE, Nox2, parvalbumin and GAD67; type: cell-based, mouse
# Experimental: IL-6 increases superoxide in a Nox dependent manner, and reduces GAD67 and parvalbumin in primary cultures, as summarized by the data graphically presented in FIG. 18. […] As before, dihydroethidium (DHE) was applied for the last hour (DHE detects superoxide and hydrogen peroxide). After fixation, ICC for PV and GAD67 was carried out as described in methods and quantitative confocal microscopy was utilized for fluorescence analysis.
# DHE (1 μg/ml) was added during the last hour of treatment. Images show the increase in Nox2 immunoreactivity and oxidized DHE upon treatment with IL-6. Bar-graphs show the results of quantification of oxidized DHE and Nox2 fluorescence expressed as % of control. […] Data are means±SEM. Baseline intensities: DHE=21±4.7; Nox2=18.7±2.6.
# Fluorescence confocal images of representative fields depicting the expression of parvalbumin (PV) and GAD67 in PV-interneurons. Bar-graph represents the quantification of fluorescence expressed as % of control. […] Data are means±SEM. Baseline intensities: PV=135±32; GAD67=114±26.
# IL-6 potentiates ketamine effects on PV-interneurons. […] After fixation, ICC for GAD67 and parvalbumin was carried out as described by Kinney (2006) J. Neurosci. […] N=3 cultures per condition.
# NADPH oxidase (Nox) = experiment: Nox activity in synaptosomes by NADPH-dependent oxygen consumption (oximetry); type: biochemical, mouse
# Experimental: Synaptosomal preparations. […] Mice were euthanized by exposure to a lethal dose of inhaled halothane, followed by cervical dislocation. Brains were rapidly removed, cortices dissected and homogenized in 10 volumes of ice-cold isolation buffer (0.32M sucrose, 1 mM EDTA, 10 mM Tris-HCl buffer, pH 7.4, 10 mM glucose). The homogenate was centrifuged at 3100 rpm for 3 min at 4° C., and the supernatant collected, and the pellet was re-homogenized in half the volume of isolation buffer and centrifuged again. Synaptosomal were then isolated as described (see reference 30, below) modified as follows, the pooled supernatants were mixed with PERCOLL™ (Sigma, St. Louis, Mo.) to a final concentration of 15%, and then layered onto a step gradient of 23% and 40% PERCOLL™, and centrifuged at 16,000 rpm for 5 minutes at 4° C. The uppermost band was extracted, rinsed in isolation buffer, centrifuged and resuspended in synaptosomal buffer (120 mM NaCl, 4.7 mM KCl, 2.2 mM CaCl2, 1.2 mM MgCl2, 25 mM HEPES, 1.2 mM MgSO4, 1.2 mM KH2PO4, 10 mM glucose).
# Oxygen consumption studies (oximetry). O2 consumption studies on synaptosomes are carried out. […] Studies were carried out to optimize the concentration of synaptosomal protein required, and to confirm stability and viability of synaptosomes and their mitochondria for up to 6 h.
# PV-interneurons = experiment: parvalbumin and GAD67 immunoreactivity in PV-interneurons in primary neuronal cultures; conditions: co-exposure with ketamine 24 h; muscimol 10 μM, C3, apocynin 0.5 mM
# NADPH oxidase = biological target: T1, NADPH oxidase (Mus musculus, UniProt Q61093); experiment: EPR superoxide production by forebrain synaptosomes exposed to IL-6; type: biochemical; conditions: apocynin 0.4 mM applied 5 min before IL-6
# T1 sequence (Q61093 1-570): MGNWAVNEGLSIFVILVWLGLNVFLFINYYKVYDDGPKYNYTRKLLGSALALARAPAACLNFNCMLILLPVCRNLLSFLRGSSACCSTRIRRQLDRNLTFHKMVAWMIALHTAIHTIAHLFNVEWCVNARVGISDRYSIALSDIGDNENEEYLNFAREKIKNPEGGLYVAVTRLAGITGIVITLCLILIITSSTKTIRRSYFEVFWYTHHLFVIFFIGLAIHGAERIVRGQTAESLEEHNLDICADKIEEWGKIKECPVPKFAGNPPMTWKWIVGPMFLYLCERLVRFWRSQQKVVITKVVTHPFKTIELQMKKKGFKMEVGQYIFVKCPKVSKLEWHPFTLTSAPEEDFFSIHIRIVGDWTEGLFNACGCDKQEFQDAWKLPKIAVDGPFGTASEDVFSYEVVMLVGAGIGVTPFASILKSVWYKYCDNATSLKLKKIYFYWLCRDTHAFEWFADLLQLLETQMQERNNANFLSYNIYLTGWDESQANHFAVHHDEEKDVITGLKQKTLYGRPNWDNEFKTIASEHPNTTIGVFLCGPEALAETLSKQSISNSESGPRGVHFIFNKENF
# T1 sequence (Q61462 1-192 partner): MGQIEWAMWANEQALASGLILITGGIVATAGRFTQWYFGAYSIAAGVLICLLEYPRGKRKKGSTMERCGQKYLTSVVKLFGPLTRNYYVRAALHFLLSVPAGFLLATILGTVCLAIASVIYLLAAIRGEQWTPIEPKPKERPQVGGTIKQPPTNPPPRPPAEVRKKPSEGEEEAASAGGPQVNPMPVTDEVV
smiles,measurement,setting,value
"COc1cc(C(C)=O)ccc1O [apocynin, 4-hydroxy-3-methoxyacetophenone]","effect on IL-6 effects (DHE oxidation, GAD67 and parvalbumin)","[1]; apocynin 0.5 mM with IL-6 10 ng/ml, 24 h",prevented
same,effect on IL-6-induced superoxide production,[1]; apocynin added along with IL-6,eliminated
same,effect on Nox2 induction by IL-6,[1]; apocynin added along with IL-6,not affected
same,block of NADPH-induced O2 consumption,"NADPH oxidase (Nox); 200 μM apocynin, synaptosomes, 5 mM NADPH",> 90%
same,effect on increased Nox activity in synaptosomes from ketamine treated animals,NADPH oxidase (Nox); apocynin added in vitro,inhibited
same,effect on ketamine-mediated loss of parvalbumin and GAD67 immunoreactivity in PV-interneurons,PV-interneurons,prevented; also recorded: attenuated
same,effect on IL-6-induced increase in superoxide (EPR),NADPH oxidase,completely blocked
